Where a name gives a salt, the structure may show the parent alone.
Key:
rats = test: Effect on heart rate in rats; format: in vivo, rat; details: anesthetized rats
Protocol: The effect of the test substances on heart rate was investigated in two rats with an average weight of 250 to 300 gm for each dose. The rats were anesthetized with pentobarbital (50 mg/kg i.p. and 20 mg/kg s.c.). The test substances were injected in aqueous solution into the jugular vein (0.1 ml/100 gm). The blood pressure was measured using a cannula inserted in a carotid artery and the heart rate was recorded from an ECG (IInd or IIIrd reading) obtained using needle electrodes. The heart rate of the animals in the control period was between 350 and 400 beats per minute (b/min).

cats = test: Effect on heart rate in cats; format: in vivo, cat; details: anesthetized cats, 1.0 mg/kg i.v.; for Half-life: heart rate effect
Protocol: The cats were anesthetized with Nembutal (30 mg/kg i.p.) and chloralose urethane (40 mg/ml of chloralose+200 mg/ml of urethane, as required). The compound to be tested was injected in aqueous solution into the vena saphena or into the duodenum. The heart rate was recorded before and after the admiministration of the substance by means of a Grass tachograph from the electrocardiagram (taken from and chest wall) on a Grass polygraph.

Acute toxicity in mice = details: mouse, in vivo, observation period 14 days
Protocol: The acute toxicity of the test compound was determined in mice (observationperiod: 14 days) after intravenous and peroral administration: […]

COc1cc2c(cc1OC)CC(=O)N(CCCN(C)CCCCc1ccc(N(C)C)cc1)CC2 [Q, 1-[7,8-Dimethoxy-1,3,4,5-tatrahydro-2H-3-benzazepin-2-on-3-yl]-3-N-methyl-N-(4-{4-dimethylaino-phenyl}butyl)-amino]-propane hydrobromide]
Reduction in Heart Rate (20 Minutes) After Application of the Compound (rats; 1.0 mg/kg i.v.): -94 Beats/Minutes
Reduction in Heart Rate (20 Minutes) After Application of the Compound (rats; 2.5 mg/kg i.v.): -91 Beats/Minutes
Reduction in Heart Rate (20 Minutes) After Application of the Compound (rats; 5.0 mg/kg i.v.): -123 Beats/Minutes

COc1ccc(CCCN(C)CCCN2CCc3cc(OC)c(OC)cc3CC2=O)cc1OC.Cl [L, 1-[7,8-Dimethoxy-1,3,4,5-tetrahydro-2H-3-benzazepin-2-on-3-yl]-3-[N-methyl-N-(3-{3,4-dimethoxy-phenyl}-propyl)-amino]-propane hydrochloride]
Reduction in Heart Rate (20 Minutes) After Application of the Compound (rats; 1.0 mg/kg i.v.): -51 Beats/Minutes
Reduction in Heart Rate (20 Minutes) After Application of the Compound (rats; 2.5 mg/kg i.v.): -85 Beats/Minutes
Reduction in Heart Rate (20 Minutes) After Application of the Compound (rats; 5.0 mg/kg i.v.): -183 Beats/Minutes

COc1cc2c(cc1OC)CC(=O)N(CCCN(C)CCCc1cc(Cl)c(N)c(Cl)c1)CC2 [T, 1-[7,8-Dimethoxy-1,3,4,5-tetrahydro-2H-3-benzazepin-2-on-3-yl]-3-[N-methyl-N-(3-{4-amino-3,5-dichlorophenyl}-propyl)-amino]-propane]
Reduction in Heart Rate (20 Minutes) After Application of the Compound (rats; 5.0 mg/kg i.v.): -175 Beats/Minutes

COc1ccc(CCN(C)CCCN2CCc3cc(OC)c(OC)cc3C(=O)C2=O)cc1OC [C, 1-[7,8-Dimethoxy-1,3,4,5-tetrahydro-2H-3-benzazepine-1,2-dion-3-yl]-3-[N-methyl-(2-}3,4-dimethoxy-phenyl}-ethyl)-amino]-propane hydrochloride]
Reduction in Heart Rate (cats): -44%
Half-life (cats): 1.5 h

COc1ccc(CCN(C)CCCN2CCc3cc(OC)c(OC)cc3CC2=O)cc1OC.Cl.Cl [A, 1-[7,8-Dimethoxy-1,3,4,5-tetrahydro-2H-3-benzazepin-2-on-3-yl]-3-[N-methyl-N-(2-{3,4-dimethoxy-phenyl}-ethyl)-amino]-propane dihydrochloride]
LD50 at 336 h (Acute toxicity in mice; iv): 89 mg/kg
LD50 at 336 h (Acute toxicity in mice; po): 1350 mg/kg
Reduction in Heart Rate (cats): -55%
Half-life (cats): 2 h

COc1cc2c(cc1OC)CC(=O)N(CCCN(C)CCc1ccc(N)c([N+](=O)[O-])c1)CC2 [P, 1-[7,8-Dimethoxy-1,3,4,5-tetrahydro-2H-3-benzazepin-2-on-3-yl]-3-[N-methyl-N-(2-{4-aino-3-nitro-phenyl}-ethyl)-amino]-propane hydrochloride]
Reduction in Heart Rate (20 Minutes) After Application of the Compound (rats; 5.0 mg/kg i.v.): -130 Beats/Minutes

COc1ccc(CCN(C)CCCN2CCCc3cc(OC)c(OC)cc3C2=O)cc1OC [U, 1-[7,8-Dimethoxy-1,3,4,5-tetrahydro-5H-2-benzazepin-1-on-2-yl]-3-[N-methyl-N-(2-{3,4-dimethoxy-phenyl}-ethyl)-amino]-propane hydrochloride, reference compound]
Reduction in Heart Rate (20 Minutes) After Application of the Compound (rats; 5.0 mg/kg i.v.): -18 Beats/Minutes
Reduction in Heart Rate (cats): -8.2%
Half-life (cats): 0.217 h

COc1ccc(C(O)CN(C)CCCN2CCc3cc(OC)c(OC)cc3CC2=O)cc1OC (stereo not shown) [N, 1-[7,8-Dimethoxy-1,3,4,5-tetrahydro-2H-3-benzazepin-2-on-3-yl]-3-[N-methyl-N-(2-hydroxy-2-{3,4-dimethoxyphenyl}-ethyl)-amino]-propane]
Reduction in Heart Rate (20 Minutes) After Application of the Compound (rats; 2.5 mg/kg i.v.): -137 Beats/Minutes
Reduction in Heart Rate (20 Minutes) After Application of the Compound (rats; 5.0 mg/kg i.v.): -173 Beats/Minutes

COc1cc2c(cc1OC)CC(=O)N(CCCN(C)CCc1cc(Cl)c(N)c(Cl)c1)CC2 [F, 1-[7,8-Dimethoxy-1,3,4,5-tetrahydro-2H-3-benzazepin-2-on-3-yl]-3-[N-methyl-N-(2-{4-amino-3,5-dichloro-phenyl}-ethyl)-amino]-propane]
Reduction in Heart Rate (cats): -51%
Half-life (cats): 2 h

COc1ccc(CCN(C)CCCN2CCc3cc(OC)c(OC)cc3CC2=S)cc1OC [M, 1-[7,8-Dimethoxy-1,3,4,5-tetrahydro-2H-3-benzazepin-2-thion-3-yl]-N-[N-methyl-N-(2-{3,4-dimethoxy-phenyl}-ethyl)-amino]-propane]
Reduction in Heart Rate (20 Minutes) After Application of the Compound (rats; 1.0 mg/kg i.v.): -73 Beats/Minutes
Reduction in Heart Rate (20 Minutes) After Application of the Compound (rats; 2.5 mg/kg i.v.): -134 Beats/Minutes
Reduction in Heart Rate (20 Minutes) After Application of the Compound (rats; 5.0 mg/kg i.v.): -255 Beats/Minutes

COc1ccc(CCN(C)CCCN2CCc3cc(OC)c(OC)cc3C(O)C2=O)cc1OC (stereo not shown) [O]
Reduction in Heart Rate (20 Minutes) After Application of the Compound (rats; 1.0 mg/kg i.v.): -83 Beats/Minutes
Reduction in Heart Rate (20 Minutes) After Application of the Compound (rats; 2.5 mg/kg i.v.): -73 Beats/Minutes
Reduction in Heart Rate (20 Minutes) After Application of the Compound (rats; 5.0 mg/kg i.v.): -117 Beats/Minutes

COc1ccc(CCN(C)CCCN2CCc3cc(OC)c(OC)cc3NC2=O)cc1OC [D, 1-[7,8-Dimethoxy-1,3,4,5-tetrahydro-2H-1,3-benzodiazepin-2-on-3-yl]-3-[N-methyl-(2-{3,4-dimethoxy-phenyl}-ethyl)-amino]-propane]
Reduction in Heart Rate (cats): -41%
Half-life (cats): 1.33 h

COc1ccc(CCNCCCN2CCc3cc(OC)c(OC)cc3CC2=O)cc1OC.Cl [E, 1-[7,8-Dimethoxy-1,3,4,5-tetrahydro-2H-3-benzazepin-2-on-3-yl]-3-[N-(2-{3,4-dimethoxy-phenyl}-ethyl)-amino]-propane hydrochloride]
Reduction in Heart Rate (cats): -45%
Half-life (cats): 1.5 h

COc1cc(CCCCCN(C)CCCN2CCc3cc(OC)c(OC)cc3CC2=O)cc(OC)c1 [S, 1-[7,8-Dimethoxy-1,3,4,5-tetrahydro-2H-3-benzazepin-2-on-3-yl]-3-[N-methyl-N-(5-{3,5-dimethoxy-phenyl}-pentyl)-amino]-propane]
Reduction in Heart Rate (20 Minutes) After Application of the Compound (rats; 5.0 mg/kg i.v.): -18 Beats/Minutes

COc1ccc(CCN(C)CCCN2C=Cc3cc(OC)c(OC)cc3CC2=O)cc1OC.Cl [B, 1-[7,8-Dimethoxy-1,3-dihydro-2H-3-benzazepin-2-on-3-yl]-3-[N-methyl-N-(2-{3,4-dimethoxy-phenyl}-ethyl)-amino]-propane hydrochloride]
Reduction in Heart Rate (cats): -45%
Half-life (cats): 2 h

COc1cc2c(cc1OC)CC(=O)N(CCCN(C)CCc1ccccc1)CC2.Cl.Cl [R, 1-[7,8-Dimethoxy-1,3,4,5-tetrahydro-2H-3-benzazepin-2-on-3-yl]-3-[N-methyl-N-(2-phenyl-ethyl)-amino]-propane dihydrochloride]
Reduction in Heart Rate (20 Minutes) After Application of the Compound (rats; 1.0 mg/kg i.v.): -80 Beats/Minutes
Reduction in Heart Rate (20 Minutes) After Application of the Compound (rats; 2.5 mg/kg i.v.): -110 Beats/Minutes
Reduction in Heart Rate (20 Minutes) After Application of the Compound (rats; 5.0 mg/kg i.v.): -135 Beats/Minutes
